{"source": "patent US20100286154A1", "about": "“ANTIHELMINTIC PASTE” (priority 2007, published 2010)", "assay": "Paste stability test (storage in glass containers, assay of active ingredients by HPLC)", "assay_type": "physicochemical", "conditions": "paste composition of Example 2, glass containers", "from_the_text": "The paste composition of Example 2 was stored in glass containers at different temperatures for up to 12 months and assay of both active ingredients followed by HPLC analysis at given time points (3-, 6- and 12-months).", "data": [{"smiles": "O=C(C1CCCCC1)N1CC(=O)N2CCc3ccccc3C2C1", "note": "(stereo not drawn) [Praziquantel, 2-(cyclohexylcarbonyl)-1,2,3,6,7,11b-hexahydro-4H-pyrazino[2,1-a]isoquinoline-4-one]", "values": [{"measurement": "Content in % of start value", "setting": "5° C., 3 month", "value": 102.20, "unit": "%"}, {"measurement": "Content in % of start value", "setting": "5° C., 6 month", "value": 103.98, "unit": "%"}, {"measurement": "Content in % of start value", "setting": "5° C., 12 month", "value": 103.56, "unit": "%"}, {"measurement": "Content in % of start value", "setting": "25° C., 3 month", "value": 102.52, "unit": "%"}, {"measurement": "Content in % of start value", "setting": "25° C., 6 month", "value": 101.99, "unit": "%"}, {"measurement": "Content in % of start value", "setting": "25° C., 12 month", "value": 102.73, "unit": "%"}, {"measurement": "Content in % of start value", "setting": "30° C., 3 month", "value": 100.63, "unit": "%"}, {"measurement": "Content in % of start value", "setting": "30° C., 6 month", "value": 102.31, "unit": "%"}, {"measurement": "Content in % of start value", "setting": "30° C., 12 month", "value": 102.62, "unit": "%"}, {"measurement": "Content in % of start value", "setting": "40° C., 3 month", "value": 101.36, "unit": "%"}, {"measurement": "Content in % of start value", "setting": "40° C., 6 month", "value": 102.10, "unit": "%"}, {"measurement": "Content in % of start value", "setting": "40° C., 12 month", "value": 100.94, "unit": "%"}]}]}
